This passage reports IC50, Activity and EC50 results from ChEMBL document CHEMBL1821599 (J Med Chem, 2011).

pEC50, pIC50: −log10 of the molar value. Active and inactive are the calls of the source. No cut-off for these calls is given here. Where a SMILES comes first, the peptide text is derived from it. Bridges are numbered along the chain shown (N, C = ends). [ ]: non-standard residue; d: D form.

The target in experiment [1] is Somatostatin receptor type 4 (Homo sapiens, UniProt P31391). Description: Displacement of 125I-[LTT]-SRIF-28 from human sst4 receptor in CCL39 cells after 2 hrs by autoradiography. In kind it is cell-based.
Chain of Somatostatin receptor type 4 (P31391 whole entry): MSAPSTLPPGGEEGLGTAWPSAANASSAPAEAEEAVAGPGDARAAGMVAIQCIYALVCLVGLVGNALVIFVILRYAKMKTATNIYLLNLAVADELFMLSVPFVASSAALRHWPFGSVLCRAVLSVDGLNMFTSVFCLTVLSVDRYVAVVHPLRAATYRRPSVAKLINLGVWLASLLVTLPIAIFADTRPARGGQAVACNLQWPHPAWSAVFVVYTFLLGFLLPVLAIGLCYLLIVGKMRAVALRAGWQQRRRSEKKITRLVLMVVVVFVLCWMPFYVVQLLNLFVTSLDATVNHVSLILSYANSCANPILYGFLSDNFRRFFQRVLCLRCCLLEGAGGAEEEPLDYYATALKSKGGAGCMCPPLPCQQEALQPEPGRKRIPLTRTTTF
In experiment [2] the target is T1, Somatostatin receptor type 3 (Homo sapiens, UniProt P32745). Description: Partial antagonist activity at human sst3 receptor expressed in CCL39 cells assessed as inhibition of somatostatin-induced luciferase reporter gene expression at 10 uM after 5 hrs. The class given is functional, cell-based. Background: Reporter assays use an easily measured gene product as a stand-in for the process of interest.
T1 sequence (P32745 whole entry): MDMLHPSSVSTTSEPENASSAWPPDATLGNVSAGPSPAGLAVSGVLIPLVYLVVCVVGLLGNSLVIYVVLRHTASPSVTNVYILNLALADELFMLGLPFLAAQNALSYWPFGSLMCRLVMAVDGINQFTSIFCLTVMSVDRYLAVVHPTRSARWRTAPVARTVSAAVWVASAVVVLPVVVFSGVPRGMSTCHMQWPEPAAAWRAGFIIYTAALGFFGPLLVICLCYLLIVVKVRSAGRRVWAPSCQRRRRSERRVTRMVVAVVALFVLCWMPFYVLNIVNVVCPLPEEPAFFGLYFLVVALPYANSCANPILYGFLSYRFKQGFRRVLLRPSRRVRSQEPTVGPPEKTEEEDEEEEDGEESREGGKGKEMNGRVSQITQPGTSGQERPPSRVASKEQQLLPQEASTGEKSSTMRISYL

The target in experiment [3] is T1, Somatostatin receptor type 3. The experiment is described as follows: Induction of sst3 receptor internalization in human HEK cells after 30 mins by immunofluorescence microscopy. In kind it is cell-based. The note with it: HEK293.
Experiment [4] addresses Somatostatin receptor type 5 (Homo sapiens, UniProt P35346). The experiment is described as follows: Displacement of 125I-[LTT]-SRIF-28 from human sst5 receptor in HEK293 cells after 2 hrs by autoradiography. The class given is cell-based. On the technique in general: In a radioligand displacement assay an active substance lowers the binding of a labelled ligand.
Experiment [5] concerns the target T1, Somatostatin receptor type 3. The experiment is described as follows: Partial agonist activity at human sst3 receptor expressed in CCL39 cells after 5 hrs by luciferase reporter gene assay. The class given is functional, cell-based.
Experiment [6] addresses Somatostatin receptor type 1 (Homo sapiens, UniProt P30872). Description: Displacement of 125I-[LTT]-SRIF-28 from human sst1 receptor in CHO cells after 2 hrs by autoradiography. In kind it is cell-based.
For experiment [7], the target named is T1, Somatostatin receptor type 3. The experiment is described as follows: Displacement of 125I-[LTT]-SRIF-28 from human sst3 receptor in CCL39 cells after 2 hrs by autoradiography. In kind it is cell-based.
For experiment [8], the target named is Somatostatin receptor type 2 (Homo sapiens, UniProt P30874). Description: Displacement of 125I-[LTT]-SRIF-28 from human sst2 receptor in CCL39 cells after 2 hrs by autoradiography. The class given is cell-based.
Chain of Somatostatin receptor type 2 (P30874 whole entry): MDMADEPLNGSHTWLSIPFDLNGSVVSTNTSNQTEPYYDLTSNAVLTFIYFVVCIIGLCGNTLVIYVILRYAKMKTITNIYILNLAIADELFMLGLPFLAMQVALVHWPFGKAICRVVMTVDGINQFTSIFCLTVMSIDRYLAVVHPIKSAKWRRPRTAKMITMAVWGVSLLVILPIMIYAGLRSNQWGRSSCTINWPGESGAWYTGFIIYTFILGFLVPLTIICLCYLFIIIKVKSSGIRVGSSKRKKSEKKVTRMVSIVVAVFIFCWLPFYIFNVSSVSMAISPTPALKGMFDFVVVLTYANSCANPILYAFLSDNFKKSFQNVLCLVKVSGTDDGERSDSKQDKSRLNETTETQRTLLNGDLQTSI
Experiment [9] deals with T1, Somatostatin receptor type 3. Description: Agonist activity at human sst3 receptor expressed in CCL39 cells after 5 hrs by luciferase reporter gene assay. The class given is functional, cell-based.
Experiment [10] shares this target. Description: Inhibition of somatostatin-induced sst3 receptor internalization in human HEK cells at 10 uM after 30 mins by immunofluorescence microscopy. The class given is cell-based. Conditions: HEK293.
The target is the same in experiment [11]. Description: Induction of sst3 receptor internalization in human HEK cells at 10 uM after 30 mins by immunofluorescence microscopy. In kind it is cell-based. The note with it: HEK293.

Chain of Somatostatin receptor type 5 (P35346 whole entry): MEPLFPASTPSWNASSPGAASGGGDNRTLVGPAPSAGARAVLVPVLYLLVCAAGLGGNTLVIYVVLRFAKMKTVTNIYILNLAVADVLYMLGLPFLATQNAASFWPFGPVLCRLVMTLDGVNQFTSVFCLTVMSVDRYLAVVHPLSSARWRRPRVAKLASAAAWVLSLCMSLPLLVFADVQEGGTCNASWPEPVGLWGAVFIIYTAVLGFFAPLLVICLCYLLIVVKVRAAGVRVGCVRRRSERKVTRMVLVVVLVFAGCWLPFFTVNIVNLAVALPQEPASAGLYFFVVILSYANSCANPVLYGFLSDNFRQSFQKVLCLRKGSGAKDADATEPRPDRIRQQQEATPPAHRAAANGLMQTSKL
Chain of Somatostatin receptor type 1 (P30872 whole entry): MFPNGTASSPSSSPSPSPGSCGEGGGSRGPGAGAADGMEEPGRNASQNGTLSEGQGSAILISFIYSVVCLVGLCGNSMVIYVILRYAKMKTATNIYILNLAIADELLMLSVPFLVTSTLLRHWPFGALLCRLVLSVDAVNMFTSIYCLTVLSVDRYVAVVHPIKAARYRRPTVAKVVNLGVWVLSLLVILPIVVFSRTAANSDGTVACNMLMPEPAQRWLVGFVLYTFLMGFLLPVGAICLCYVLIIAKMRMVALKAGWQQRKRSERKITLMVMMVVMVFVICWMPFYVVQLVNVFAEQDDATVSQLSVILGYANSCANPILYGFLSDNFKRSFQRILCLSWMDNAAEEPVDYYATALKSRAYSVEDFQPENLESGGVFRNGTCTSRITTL

As to `C[C@H](N)C(=O)NCC(=O)N[C@H]1CSSC[C@@H](C(=O)O)NC(=O)[C@H](CO)NC(=O)[C@H]([C@@H](C)O)NC(=O)[C@H](Cc2ccccc2)NC(=O)[C@H]([C@@H](C)O)NC(=O)[C@H](CCCCN)NC(=O)[C@@H](Cc2cn(Cc3ccccc3)cn2)NC(=O)[C@H](Cc2ccccc2)NC(=O)[C@H](Cc2ccccc2)NC(=O)[C@H](CC(N)=O)NC(=O)[C@H](CCCCN)NC1=O`, the pIC50 in experiment [1] is under 6.00; in experiment [4] it was under 6.00; in experiment [6], under 6.00; in [7], 7.82; in [8], 6.97. For the same compound, the result in experiment [2] and in experiment [3] was Active. For the same compound, the pEC50 in experiment [5] is 7.39.
For `C[C@@H](O)[C@@H]1NC(=O)[C@H](CCCCN)NC(=O)[C@@H](Cc2ccc3ccccc3c2)NC(=O)[C@H](Cc2ccccc2)NC(=O)[C@H](Cc2ccccc2)NC(=O)[C@@H](N)CSSC[C@@H](C(=O)O)NC(=O)[C@H](Cc2ccccc2)NC1=O`, the pIC50 in [1] is 7.39; in [4], 8.22; in [6], 6.22; in experiment [7], 8.17; in experiment [8], 6.76. Also, the outcome in experiment [3] was Active. Moreover, in experiment [9], the pEC50 was 9.28.
Turning to `C[C@H](N)C(=O)NCC(=O)N[C@H]1CSSC[C@@H](C(=O)O)NC(=O)[C@H](CO)NC(=O)[C@H]([C@@H](C)O)NC(=O)[C@H](Cc2ccccc2)NC(=O)[C@H]([C@@H](C)O)NC(=O)[C@H](CCCCN)NC(=O)[C@H](Cc2ccc3ccccc3c2)NC(=O)[C@H](Cc2ccccc2)NC(=O)[C@H](Cc2ccccc2)NC(=O)[C@H](CC(N)=O)NC(=O)[C@H](CCCCN)NC1=O`, the pIC50 in experiment [1] is 7.92; in [4], 7.16; in experiment [6], 8.57; in experiment [7] it was 8.82; in experiment [8], 7.82. Besides, the result in experiment [3] was Active. Moreover, in [9], the pEC50 was 9.46.
Regarding `C[C@@H](O)[C@@H]1NC(=O)[C@H](CCCCN)NC(=O)[C@H](Cc2cn(Cc3ccccc3)cn2)NC(=O)[C@H](Cc2ccccc2)NC(=O)[C@H](Cc2ccccc2)NC(=O)[C@@H](N)CSSC[C@@H](C(=O)O)NC(=O)[C@H](Cc2ccccc2)NC1=O`, the pIC50 in experiment [1] is under 6.00; in experiment [4] it was under 6.00; in experiment [6], under 6.00; in experiment [7], 6.79; in [8], under 6.00. The outcome in [2] and in experiment [10] was Active. Besides, the outcome in experiment [3] and in [11] was inactive. In experiment [5], the pEC50 was 6.79.
Turning to `C[C@H](N)C(=O)NCC(=O)N[C@H]1CSSC[C@@H](C(=O)O)NC(=O)[C@H](CO)NC(=O)[C@H]([C@@H](C)O)NC(=O)[C@H](Cc2ccccc2)NC(=O)[C@H]([C@@H](C)O)NC(=O)[C@H](CCCCN)NC(=O)[C@H](Cc2cn(Cc3ccccc3)cn2)NC(=O)[C@H](Cc2ccccc2)NC(=O)[C@H](Cc2ccccc2)NC(=O)[C@H](CC(N)=O)NC(=O)[C@H](CCCCN)NC1=O`, the pIC50 in experiment [1] was under 6.00; in experiment [4], under 6.00; in experiment [6] it was under 6.00; in experiment [7], 6.88; in experiment [8], under 6.00. Also, the outcome in experiment [2] and in experiment [3] was Active. Besides, in [5], the pEC50 was 6.50.
For the compound `C[C@@H](O)[C@@H]1NC(=O)[C@H](CCCCN)NC(=O)[C@@H](Cc2cn(Cc3ccccc3)cn2)NC(=O)[C@H](Cc2ccccc2)NC(=O)[C@H](Cc2ccccc2)NC(=O)[C@@H](N)CSSC[C@@H](C(=O)O)NC(=O)[C@H](Cc2ccccc2)NC1=O`, the pIC50 in experiment [1] is 6.23; in experiment [4], under 6.00; in [6] it was under 6.00; in [7] it was 7.12; in experiment [8], under 6.00. For the same compound, the result in [2] and in experiment [10] was Active. Also, the outcome in experiment [3] and in experiment [11] was inactive. The compound also gave a pEC50 in experiment [5] of 6.52.
For the compound `C[C@@H](O)[C@@H]1NC(=O)[C@H](CCCCN)NC(=O)[C@@H](Cc2c[nH]c3ccccc23)NC(=O)[C@H](Cc2ccccc2)NC(=O)[C@H](Cc2ccccc2)NC(=O)[C@@H](N)CSSC[C@@H](C(=O)O)NC(=O)[C@H](Cc2ccccc2)NC1=O` (H-CFF[dW]KTFC-OH; disulfide 1-8), the result in experiment [3] was Active. The compound also gave a pIC50 in experiment [4] of 8.59. The same compound gave a pEC50 in [9] of 8.48.
For `C[C@H](N)C(=O)NCC(=O)N[C@H]1CSSC[C@@H](C(=O)O)NC(=O)[C@H](CO)NC(=O)[C@H]([C@@H](C)O)NC(=O)[C@H](Cc2ccccc2)NC(=O)[C@H]([C@@H](C)O)NC(=O)[C@H](CCCCN)NC(=O)[C@@H](Cc2ccc(O)cc2)NC(=O)[C@H](Cc2ccccc2)NC(=O)[C@H](Cc2ccccc2)NC(=O)[C@H](CC(N)=O)NC(=O)[C@H](CCCCN)NC1=O`, the pIC50 in [1] is 7.80; in [4], 7.39; in [6] it was 6.85; in experiment [7], 8.70; in [8], 8.39. For the same compound, in experiment [3], the result was Active. In addition, the pEC50 in [9] was 9.06.
In the case of `C[C@H](N)C(=O)NCC(=O)N[C@H]1CSSC[C@@H](C(=O)O)NC(=O)[C@H](CO)NC(=O)[C@H]([C@@H](C)O)NC(=O)[C@H](Cc2ccccc2)NC(=O)[C@H]([C@@H](C)O)NC(=O)[C@H](CCCCN)NC(=O)[C@H](Cc2ccc(O)cc2)NC(=O)[C@H](Cc2ccccc2)NC(=O)[C@H](Cc2ccccc2)NC(=O)[C@H](CC(N)=O)NC(=O)[C@H](CCCCN)NC1=O`, the negative logarithm of the IC50 (pIC50) in experiment [1] was 7.60; in experiment [4], 6.25; in experiment [6], 6.86; in experiment [7] it was 7.89; in experiment [8], 7.46. Further, in [3], the result was Active. The compound also showed a pEC50 in [9] of 7.80.
Turning to `C[C@@H](O)[C@@H]1NC(=O)[C@H](CCCCN)NC(=O)[C@H](Cc2c[nH]c3ccccc23)NC(=O)[C@H](Cc2ccccc2)NC(=O)[C@H](Cc2ccccc2)NC(=O)[C@@H](N)CSSC[C@@H](C(=O)O)NC(=O)[C@H](Cc2ccccc2)NC1=O` (H-CFFWKTFC-OH; disulfide 1-8), the outcome in experiment [3] was Active. Moreover, the negative logarithm of the IC50 (pIC50) in [4] is 7.80. The compound further gave a pEC50 in experiment [5] of 8.33.
For `C[C@H](N)C(=O)NCC(=O)N[C@H]1CSSC[C@@H](C(=O)O)NC(=O)[C@H](CO)NC(=O)[C@H]([C@@H](C)O)NC(=O)[C@H](Cc2ccccc2)NC(=O)[C@H]([C@@H](C)O)NC(=O)[C@H](CCCCN)NC(=O)[C@@H](Cc2ccc3ccccc3c2)NC(=O)[C@H](Cc2ccccc2)NC(=O)[C@H](Cc2ccccc2)NC(=O)[C@H](CC(N)=O)NC(=O)[C@H](CCCCN)NC1=O`, the pIC50 in experiment [1] was 7.92; in experiment [4], 8.62; in experiment [6] it was 8.39; in experiment [7] it was 9.00; in experiment [8] it was 8.80. Also, the result in experiment [3] was Active. The same compound showed a pEC50 in experiment [9] of 9.64.

Usually pIC50 stands for −log10 of the IC50, conventionally taken in molar units. Read a high pIC50 as a small IC50. For orientation: pEC50 means −log10 of the EC50, conventionally taken in molar units.
